For test [1], the target named is T1, GDF-11 (Homo sapiens, UniProt O95390).
T1 construct: purchased R&D systems 1958-GD-G8/CF
T1 sequence (O95390 299-407): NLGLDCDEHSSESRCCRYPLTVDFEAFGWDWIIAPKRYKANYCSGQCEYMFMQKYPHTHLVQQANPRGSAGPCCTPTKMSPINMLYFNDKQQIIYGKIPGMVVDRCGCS
As to the kind of experiment: HepG2 reporter gene assay, Evaluation Procedure (2): 2-concentrations assay, GDF-11 inhibition. It is filed as cell-based. Particulars: for inhibition at 0.03 µM: HepG2, peptide 30nM, read-out: GDF11 Inhibition 30nM; for inhibition at 0.03 µM / inhibition at 0.1 µM: GDF-11 10 ng/mL; for inhibition at 0.1 µM: HepG2, peptide 100nM, read-out: GDF11 Inhibition 100nM; for inhibition: read-out: inhibition rate (GDF-11 inhibition assay). The essentials:
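HepG2 cells carrying the transfected pGL3(CAGA)12-luc reporter, a pGL3 vector with luciferase placed downstream of 12 CAGA repeats, were stimulated with GDF-11 at a final 10 ng/mL together with test peptide. Blank wells received no GDF-11 and no peptide. Plates were incubated 20 to 24 hours at 37°C with 5% CO2. Luminescence from One-Glo substrate was read to calculate percent inhibition.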
In general terms: Reporter assays use an easily measured gene product as a stand-in for the process of interest.

For test [2], the target named is T2, Myostatin (Homo sapiens, UniProt O14793).
T2 construct: active myostatin (also called mature myostatin) is a homodimer consisting of two C-terminal growth factor domains; purchased R&D systems 788-G8/CF
T2 sequence (O14793 267-375): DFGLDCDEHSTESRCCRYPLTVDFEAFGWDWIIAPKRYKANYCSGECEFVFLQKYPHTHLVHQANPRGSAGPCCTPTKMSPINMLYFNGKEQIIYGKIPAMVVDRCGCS
As to the kind of experiment: HepG2 reporter gene assay, Evaluation Procedure (2): 2-concentrations assay, myostatin inhibition. It is filed as cell-based. As to conditions: HepG2. The essentials: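 Myostatin inhibition was measured in a luciferase reporter assay using HepG2 cells transfected with a pGL3 vector containing 12 CAGA repeats upstream of luciferase. After 20 to 24 hours with 10 ng/mL myostatin, cells received One-Glo:PBS (1:1) at 100 µL/well, were shaken for 5 min, and 20 µL/well was moved to 384-well plates and read on an Envision 2104.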

The mark [3] stands for this setting: peptide 30nM, Myostatin 10 ng/mL, read-out: Myostatin Inhibition 30nM.
[4] abbreviates: peptide 100nM, Myostatin 10 ng/mL, read-out: Myostatin Inhibition 100nM.
[5] abbreviates: HepG2, first GDF-11 column of Table 7-3/7-4, GDF-11 10 ng/mL, peptide at the lower of the 2 concentrations.
Setting [6] is: HepG2, second GDF-11 column of Table 7-3/7-4, GDF-11 10 ng/mL, peptide at the higher of the 2 concentrations.
The mark [7] stands for this setting: Table 7-3/7-4, myostatin 10 ng/mL, peptide at the higher of the 2 concentrations, read-out: inhibition rate (myostatin inhibition assay).
Where [8] appears, read: Table 7-3/7-4, myostatin 10 ng/mL, peptide at the lower of the 2 concentrations, read-out: inhibition rate (myostatin inhibition assay).

Like-named read-outs stand apart in the source and are kept apart here. Starred links: 1 amine or outer side, 2 acyl side, 3 side chain; linkers in the order of their positions; H or OH if unused. Positions of bridges follow the written chain, without caps; N, C: chain ends. Non-standard residues stand in square brackets, D forms with d. Residues, ends and D or L forms follow the SMILES beside them. Groups on a side chain read outwards from the residue. *: point of attachment. Phe(3-OCH2COOH) = N[C@@H](Cc1cccc(OCC(=O)O)c1)C(=O)O; Phe(4-COOH) = N[C@@H](Cc1ccc(C(=O)O)cc1)C(=O)O; Trp(6-aza) = N[C@@H](Cc1c[nH]c2cnccc12)C(=O)O; NMePhe(3-Me) = CN[C@@H](Cc1cccc(C)c1)C(=O)O; Piperazinyl(4-CH2COOH) = O=C(O)CN1CCN(*)CC1; Piperidinyl(4-CH2COOH) = O=C(O)CC1CCN(*)CC1; Bip = N[C@@H](Cc1ccc(-c2ccccc2)cc1)C(=O)O; NMe2Nal = CN[C@@H](Cc1ccc2ccccc2c1)C(=O)O; Gly(decyl) = CCCCCCCCCC[C@H](N)C(=O)O; Gly(N(CH2)3COOH) = O=C(O)CCCNCC(=O)O; NMe4Pal = CN[C@@H](Cc1ccncc1)C(=O)O; X1 = CCCCCCC[C@H](N[*:1])C(=O)[*:2]; NMeF = CN[C@@H](Cc1ccccc1)C(=O)O; NMeE = CN[C@@H](CCC(=O)O)C(=O)O; Cha = N[C@@H](CC1CCCCC1)C(=O)O; NMeC = CN[C@@H](CS)C(=O)O; NMeA = CN[C@@H](C)C(=O)O; CO = O=C([*:1])[*:2]; NPrGly = CCCNCC(=O)O; Sar = CNCC(=O)O

From EP4786487A1, “PEPTIDE” (Peptidream Inc, priority 2023, dated 2025) come the findings set out here.

As for `CCCCCCCCCC[C@@H]1NC(=O)[C@H](CC2CCCCC2)NC(=O)[C@H](CCCNC(=N)N)NC(=O)[C@H](Cc2ccc(C(=O)O)cc2)NC(=O)[C@H](Cc2cccc(OCC(=O)O)c2)NC(=O)CN(C)C(=O)[C@H]([C@@H](C)CC)NC(=O)[C@H](Cc2ccccc2)N(C)C(=O)[C@H](Cc2ccc(O)cc2)NC(=O)[C@H](Cc2c[nH]c3ccccc23)NC(=O)[C@H](C)NC(=O)[C@H](CCCCNC(=O)N2CCN(CC(=O)O)CC2)NC(=O)CSC[C@H](C(=O)N2CCN(CC(=O)O)CC2)NC(=O)[C@H](Cc2ccccc2)N(C)C(=O)[C@H](C)N(C)C1=O` [Myostatin_99_v259] ({CH2CO}-K([CO-Piperazinyl(4-CH2COOH)])AWY[NMeF]I[Sar][Phe(3-OCH2COOH)][Phe(4-COOH)]R[Cha][Gly(decyl)][NMeA][NMeF][dC]-{Piperazinyl(4-CH2COOH)}; thioether N-15), the inhibition at 0.03 µM in test [1] is 0%; in test [2] (setting [3]) it was 100%. Also, the inhibition at 0.1 µM in test [1] is 28%; in test [2] (setting [4]), 100%.

As for `CC[C@H](C)[C@@H]1NC(=O)[C@H](Cc2cccc(C)c2)N(C)C(=O)[C@H](Cc2ccc(O)cc2)NC(=O)[C@H](Cc2ccc(-c3ccccc3)cc2)NC(=O)[C@H](C)NC(=O)CN(CCCC(=O)O)C(=O)CSC[C@H](C(=O)O)NC(=O)[C@H](Cc2ccccc2)N(C)C(=O)[C@H](C)N(C)C(=O)[C@H](CC(C)C)NC(=O)[C@H](Cc2ccccc2)N(C)C(=O)[C@H](CCCNC(=N)N)NC(=O)[C@H](Cc2ccc(C(=O)O)cc2)NC(=O)[C@H](Cc2cccc(OCC(=O)O)c2)NC(=O)CN(C)C1=O` [Myostatin_99_v119] ({CH2CO}-[Gly(N(CH2)3COOH)]A[Bip]Y[NMePhe(3-Me)]I[Sar][Phe(3-OCH2COOH)][Phe(4-COOH)]R[NMeF]L[NMeA][NMeF][dC]-OH; thioether N-15), the inhibition at 0.03 µM in test [1] was 0%; in test [2] (setting [3]), 46%. In addition, the results for the inhibition at 0.1 µM in test [1] and in test [2] (setting [4]) were 0% and 70%, respectively.

Consider `CCCCCCC[C@@H]1NC(=O)[C@H](Cc2ccncc2)N(C)C(=O)[C@H](CCCNC(=N)N)NC(=O)[C@H](Cc2ccc(C(=O)O)cc2)NC(=O)[C@H](Cc2cccc(OCC(=O)O)c2)NC(=O)CN(C)C(=O)[C@H]([C@@H](C)CC)NC(=O)[C@H](Cc2ccccc2)N(C)C(=O)[C@H](Cc2ccc(O)cc2)NC(=O)[C@H](Cc2c[nH]c3ccccc23)NC(=O)[C@H](C)NC(=O)[C@H](C)NC(=O)CSC[C@H](C(=O)O)NC(=O)[C@H](Cc2ccccc2)N(C)C(=O)[C@H](C)N(C)C1=O` [Myostatin_99_v210] ({CH2CO}-AAWY[NMeF]I[Sar][Phe(3-OCH2COOH)][Phe(4-COOH)]R[NMe4Pal][X1][NMeA][NMeF][dC]-OH; thioether N-15), for which the inhibition at 0.03 µM in test [1] is 0%; in test [2] (setting [3]) it was 95%. In addition, the inhibition at 0.1 µM amounted to 7% in test [1] and 99% in test [2] (setting [4]).

As to `CC[C@H](C)[C@@H]1NC(=O)[C@H](Cc2ccccc2)N(C)C(=O)[C@H](Cc2ccc(O)cc2)NC(=O)[C@H](Cc2c[nH]c3ccccc23)NC(=O)[C@H](C)NC(=O)CN(CCCC(=O)O)C(=O)CSC[C@H](C(N)=O)NC(=O)[C@H](Cc2ccccc2)N(C)C(=O)[C@H](C)N(C)C(=O)[C@H](CC(C)C)NC(=O)[C@H](Cc2ccccc2)N(C)C(=O)[C@H](CCCNC(=N)N)NC(=O)[C@H](Cc2ccc(C(=O)O)cc2)NC(=O)[C@H](Cc2ccc(O)cc2)NC(=O)[C@H](C)N(C)C1=O` [Myostatin_99_Variant_15] ({CH2CO}-[Gly(N(CH2)3COOH)]AWY[NMeF]I[NMeA]Y[Phe(4-COOH)]R[NMeF]L[NMeA][NMeF][dC]-NH2; thioether N-15), the inhibition at 0.03 µM in test [1] stood at 0%; in test [2] (setting [3]), 54%. In addition, the values for the inhibition at 0.1 µM in test [1] and in test [2] (setting [4]) were 0% and 84%, respectively.

Turning to `CCCCCCC[C@@H]1NC(=O)[C@H](Cc2ccccc2)N(C)C(=O)[C@H](CCCNC(=N)N)NC(=O)[C@H](Cc2ccc(C(=O)O)cc2)NC(=O)[C@H](Cc2cccc(OCC(=O)O)c2)NC(=O)[C@H](C)N(C)C(=O)[C@H]([C@@H](C)CC)NC(=O)[C@H](Cc2ccccc2)N(C)C(=O)[C@H](Cc2ccc(O)cc2)NC(=O)[C@H](Cc2c[nH]c3ccccc23)NC(=O)[C@H](C)NC(=O)CN(CCCC(=O)O)C(=O)CSC[C@@H](C(N)=O)N(C)C(=O)[C@H](Cc2ccccc2)N(C)C(=O)[C@H](C)N(C)C1=O` [Myostatin_99_v440] ({CH2CO}-[Gly(N(CH2)3COOH)]AWY[NMeF]I[NMeA][Phe(3-OCH2COOH)][Phe(4-COOH)]R[NMeF][X1][NMeA][NMeF][NMeC]-NH2; thioether N-15), the inhibition in test [1] (setting [5]) worked out at 0%; in test [1] (setting [6]), 9%. Moreover, in test [2] (setting [7]), the inhibition at 0.1 µM was found to be 100%. Also, the inhibition at 0.03 µM in test [2] (setting [8]) is 99%.

With `CCCCCCC[C@@H]1NC(=O)[C@H](Cc2ccccc2)N(C)C(=O)[C@H](CCCNC(=N)N)NC(=O)[C@H](Cc2ccc(C(=O)O)cc2)NC(=O)[C@H](Cc2cccc(OCC(=O)O)c2)NC(=O)CN(C)C(=O)[C@H]([C@@H](C)CC)NC(=O)[C@H](Cc2ccc3ccccc3c2)N(C)C(=O)[C@H](Cc2ccc(O)cc2)NC(=O)[C@H](Cc2c[nH]c3ccccc23)NC(=O)[C@H](C)NC(=O)[C@H](C)NC(=O)CSC[C@H](C(=O)N2CCN(CC(=O)O)CC2)NC(=O)[C@H](Cc2ccccc2)N(C)C(=O)[C@H](C)N(C)C1=O` [Myostatin_99_v306] ({CH2CO}-AAWY[NMe2Nal]I[Sar][Phe(3-OCH2COOH)][Phe(4-COOH)]R[NMeF][X1][NMeA][NMeF][dC]-{Piperazinyl(4-CH2COOH)}; thioether N-15), the inhibition in test [1] (setting [5]) and in test [1] (setting [6]) was 0% throughout. In test [2] (setting [7]), the inhibition at 0.1 µM was 94%. Moreover, the inhibition at 0.03 µM in test [2] (setting [8]) came to 80%.

With `CCCCCCCCCC[C@@H]1NC(=O)[C@H](Cc2ccccc2)N(C)C(=O)[C@H](CCCNC(=N)N)NC(=O)[C@H](Cc2ccc(C(=O)O)cc2)NC(=O)[C@H](Cc2cccc(OCC(=O)O)c2)NC(=O)CN(CCC)C(=O)[C@H]([C@@H](C)CC)NC(=O)[C@H](Cc2ccccc2)N(C)C(=O)[C@H](Cc2ccc(O)cc2)NC(=O)[C@H](Cc2c[nH]c3cnccc23)NC(=O)[C@H](C)NC(=O)[C@H](C)NC(=O)CSC[C@H](C(=O)N2CCC(CC(=O)O)CC2)NC(=O)[C@H](Cc2ccccc2)N(C)C(=O)[C@H](CCC(=O)O)N(C)C1=O` [Myostatin_99_v337] ({CH2CO}-AA[Trp(6-aza)]Y[NMeF]I[NPrGly][Phe(3-OCH2COOH)][Phe(4-COOH)]R[NMeF][Gly(decyl)][NMeE][NMeF][dC]-{Piperidinyl(4-CH2COOH)}; thioether N-15), the inhibition in test [1] (setting [5]) and in test [1] (setting [6]) was 0% throughout. For the same compound, in test [2] (setting [7]), the inhibition at 0.1 µM is 96%. The inhibition at 0.03 µM in test [2] (setting [8]) came out at 82%.

For orientation: inhibition means the relative decrease from the control value, in per cent.
